Results as given in US20250353864A1, “INDAZOLE CONTAINING MACROCYCLES AND THEIR USE” (BLOSSOMHILL THERAPEUTICS, INC., priority 2022, published 2025).

How the values were obtained:
Type in all cases: biochemical
EGFR (D770_N771insNPG) = EGFR (D770_N771insNPG) (Homo sapiens (Human), UniProt P00533, INS770NPG); test: HotSpot radiometric kinase assay, EGFR (D770_N771insNPG); settings: 10 μM ATP, read-out: EGFR (Δ770_N771insNPG) IC50
In short: (§1)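 IC50 values derive from curve fits of 33P incorporation measured by P81 filter binding. ATP was 10 μM final; incubation lasted 120 min at room temperature after ~20 min compound preincubation.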

EGFR L858R/T790M mutant = EGFR L858R/T790M mutant (Homo sapiens (Human), UniProt P00533, L858R/T790M); test: HotSpot radiometric kinase assay, EGFR L858R/T790M mutant; settings: 10 μM ATP
EGFR L858R/T790M mutant, sequence (P00533 25-1210 T790M/L858R): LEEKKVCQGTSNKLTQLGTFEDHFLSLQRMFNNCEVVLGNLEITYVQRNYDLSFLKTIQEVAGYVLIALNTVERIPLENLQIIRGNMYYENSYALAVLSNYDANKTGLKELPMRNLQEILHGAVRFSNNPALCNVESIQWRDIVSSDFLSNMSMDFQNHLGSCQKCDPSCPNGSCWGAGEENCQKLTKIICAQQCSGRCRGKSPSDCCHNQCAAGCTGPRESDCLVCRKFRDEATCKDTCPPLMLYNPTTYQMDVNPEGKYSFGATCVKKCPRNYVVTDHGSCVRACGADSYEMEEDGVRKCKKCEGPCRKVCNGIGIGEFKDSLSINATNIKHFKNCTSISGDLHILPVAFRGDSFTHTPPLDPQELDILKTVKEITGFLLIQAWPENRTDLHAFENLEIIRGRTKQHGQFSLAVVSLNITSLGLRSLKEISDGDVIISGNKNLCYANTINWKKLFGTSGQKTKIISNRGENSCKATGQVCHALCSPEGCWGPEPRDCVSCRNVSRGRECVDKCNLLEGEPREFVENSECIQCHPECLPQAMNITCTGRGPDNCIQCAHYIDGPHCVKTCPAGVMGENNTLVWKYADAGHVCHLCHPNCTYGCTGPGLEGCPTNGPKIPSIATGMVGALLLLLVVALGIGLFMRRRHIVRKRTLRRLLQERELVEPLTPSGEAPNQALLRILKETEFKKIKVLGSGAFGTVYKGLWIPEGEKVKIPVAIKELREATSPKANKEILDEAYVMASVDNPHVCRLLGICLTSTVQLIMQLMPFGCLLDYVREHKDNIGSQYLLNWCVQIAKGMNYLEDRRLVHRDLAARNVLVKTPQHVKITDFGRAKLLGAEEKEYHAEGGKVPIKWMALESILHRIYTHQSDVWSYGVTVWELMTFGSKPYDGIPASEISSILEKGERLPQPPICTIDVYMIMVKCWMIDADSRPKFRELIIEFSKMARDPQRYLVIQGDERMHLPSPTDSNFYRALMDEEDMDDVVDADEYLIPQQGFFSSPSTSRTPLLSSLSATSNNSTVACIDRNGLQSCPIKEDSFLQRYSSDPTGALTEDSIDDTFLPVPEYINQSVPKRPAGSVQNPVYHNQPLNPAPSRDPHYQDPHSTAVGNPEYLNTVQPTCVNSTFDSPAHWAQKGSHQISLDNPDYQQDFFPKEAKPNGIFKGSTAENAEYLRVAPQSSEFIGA
Method: Biochemical Assays for Inhibition of Wild-Type and Mutant EGFRs
Briefly, specific kinase/substrate pairs along with required cofactors were prepared in reaction buffer; 20 mM Hepes pH 7.5, 10 mM […], 1 mM EGTA, 0.02% Brij35, 0.02 mg/ml BSA, 0.1 mM Na3VO4, 2 mM DTT, 1% DMSO. Compounds were delivered into the reaction, followed […] later by addition of a mixture of ATP (Sigma, St. Louis MO) and ^33P ATP (Perkin Elmer, Waltham MA) to a final concentration of 10 μM. Reactions were carried out at room temperature for 120 min, followed by spotting of the reactions onto P81 ion exchange filter paper (Whatman Inc., Piscataway, NJ). Unbound phosphate was removed by extensive washing of filters in 0.75% phosphoric acid. […] IC50 values and curve fits were obtained using Prism (GraphPad Software).

EGFR L858R mutant = EGFR L858R mutant (Homo sapiens (Human), UniProt P00533, L858R); test: HotSpot radiometric kinase assay, EGFR L858R mutant; settings: 10 μM ATP
EGFR L858R mutant, sequence (P00533 25-1210 L858R): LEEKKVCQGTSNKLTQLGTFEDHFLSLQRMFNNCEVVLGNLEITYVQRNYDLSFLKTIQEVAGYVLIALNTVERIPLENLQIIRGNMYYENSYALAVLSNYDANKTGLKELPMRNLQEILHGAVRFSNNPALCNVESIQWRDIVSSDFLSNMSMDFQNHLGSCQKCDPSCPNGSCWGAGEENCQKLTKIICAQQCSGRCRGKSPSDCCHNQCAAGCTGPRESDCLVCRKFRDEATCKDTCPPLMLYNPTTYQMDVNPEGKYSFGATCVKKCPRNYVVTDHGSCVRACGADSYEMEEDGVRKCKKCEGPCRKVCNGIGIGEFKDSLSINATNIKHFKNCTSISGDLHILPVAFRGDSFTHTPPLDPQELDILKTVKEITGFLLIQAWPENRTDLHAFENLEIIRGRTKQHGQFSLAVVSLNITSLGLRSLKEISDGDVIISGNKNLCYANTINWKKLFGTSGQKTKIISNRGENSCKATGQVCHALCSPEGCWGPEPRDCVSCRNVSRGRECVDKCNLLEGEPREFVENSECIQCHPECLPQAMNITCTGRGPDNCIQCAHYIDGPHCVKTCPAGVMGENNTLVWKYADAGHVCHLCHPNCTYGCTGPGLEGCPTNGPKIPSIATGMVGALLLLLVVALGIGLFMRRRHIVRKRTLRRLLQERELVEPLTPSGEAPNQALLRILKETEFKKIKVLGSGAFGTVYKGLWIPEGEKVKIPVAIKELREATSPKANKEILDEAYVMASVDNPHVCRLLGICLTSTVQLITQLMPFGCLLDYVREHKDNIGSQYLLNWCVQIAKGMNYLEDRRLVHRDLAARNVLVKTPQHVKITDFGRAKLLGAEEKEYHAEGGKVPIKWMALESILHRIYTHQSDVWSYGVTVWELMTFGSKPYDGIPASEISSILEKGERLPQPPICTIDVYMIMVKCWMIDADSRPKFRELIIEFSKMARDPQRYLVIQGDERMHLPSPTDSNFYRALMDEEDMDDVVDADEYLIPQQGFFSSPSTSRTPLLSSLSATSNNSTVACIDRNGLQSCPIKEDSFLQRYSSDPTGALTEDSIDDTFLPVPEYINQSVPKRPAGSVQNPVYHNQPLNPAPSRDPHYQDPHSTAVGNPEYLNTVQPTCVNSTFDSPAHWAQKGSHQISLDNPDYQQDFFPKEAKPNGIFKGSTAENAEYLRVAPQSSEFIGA
In short: as §1

[1] = target: EGFR L858R/T790M/C797S mutant (Homo sapiens (Human), UniProt P00533, C797S/L858R/T790M); test: HotSpot radiometric kinase assay, EGFR L858R/T790M/C797S mutant; settings: 10 μM ATP
In short: as §1

[2] = target: EGFR Δ746-750/C797S mutant (Homo sapiens (Human), UniProt P00533, C797S/DEL746-750); test: HotSpot radiometric kinase assay, EGFR Δ746-750/C797S mutant; settings: 10 μM ATP
EGFR Δ746-750/C797S mutant, sequence (P00533 other isoform, or with tags, fused parts or gaps C797S/del 1-668/del 746-750 limits assumed): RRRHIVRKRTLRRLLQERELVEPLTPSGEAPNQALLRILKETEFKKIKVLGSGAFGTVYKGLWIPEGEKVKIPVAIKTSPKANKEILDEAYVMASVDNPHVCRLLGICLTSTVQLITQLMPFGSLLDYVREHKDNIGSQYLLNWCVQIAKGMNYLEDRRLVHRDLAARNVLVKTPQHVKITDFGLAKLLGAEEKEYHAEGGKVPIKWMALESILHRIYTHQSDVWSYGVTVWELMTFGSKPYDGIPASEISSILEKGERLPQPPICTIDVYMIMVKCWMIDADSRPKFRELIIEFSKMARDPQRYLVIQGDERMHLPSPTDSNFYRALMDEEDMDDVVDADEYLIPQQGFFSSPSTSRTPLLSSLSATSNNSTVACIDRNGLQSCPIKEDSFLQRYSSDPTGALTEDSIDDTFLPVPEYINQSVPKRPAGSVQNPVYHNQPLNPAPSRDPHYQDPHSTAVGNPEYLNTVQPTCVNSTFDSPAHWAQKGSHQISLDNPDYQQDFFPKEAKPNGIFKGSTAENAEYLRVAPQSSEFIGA
In short: as §1

EGFR WT = EGFR WT (Homo sapiens (Human), UniProt P00533); test: HotSpot radiometric kinase assay (Reaction Biology), EGFR WT; settings: 10 μM ATP
EGFR WT, sequence (P00533 25-1210): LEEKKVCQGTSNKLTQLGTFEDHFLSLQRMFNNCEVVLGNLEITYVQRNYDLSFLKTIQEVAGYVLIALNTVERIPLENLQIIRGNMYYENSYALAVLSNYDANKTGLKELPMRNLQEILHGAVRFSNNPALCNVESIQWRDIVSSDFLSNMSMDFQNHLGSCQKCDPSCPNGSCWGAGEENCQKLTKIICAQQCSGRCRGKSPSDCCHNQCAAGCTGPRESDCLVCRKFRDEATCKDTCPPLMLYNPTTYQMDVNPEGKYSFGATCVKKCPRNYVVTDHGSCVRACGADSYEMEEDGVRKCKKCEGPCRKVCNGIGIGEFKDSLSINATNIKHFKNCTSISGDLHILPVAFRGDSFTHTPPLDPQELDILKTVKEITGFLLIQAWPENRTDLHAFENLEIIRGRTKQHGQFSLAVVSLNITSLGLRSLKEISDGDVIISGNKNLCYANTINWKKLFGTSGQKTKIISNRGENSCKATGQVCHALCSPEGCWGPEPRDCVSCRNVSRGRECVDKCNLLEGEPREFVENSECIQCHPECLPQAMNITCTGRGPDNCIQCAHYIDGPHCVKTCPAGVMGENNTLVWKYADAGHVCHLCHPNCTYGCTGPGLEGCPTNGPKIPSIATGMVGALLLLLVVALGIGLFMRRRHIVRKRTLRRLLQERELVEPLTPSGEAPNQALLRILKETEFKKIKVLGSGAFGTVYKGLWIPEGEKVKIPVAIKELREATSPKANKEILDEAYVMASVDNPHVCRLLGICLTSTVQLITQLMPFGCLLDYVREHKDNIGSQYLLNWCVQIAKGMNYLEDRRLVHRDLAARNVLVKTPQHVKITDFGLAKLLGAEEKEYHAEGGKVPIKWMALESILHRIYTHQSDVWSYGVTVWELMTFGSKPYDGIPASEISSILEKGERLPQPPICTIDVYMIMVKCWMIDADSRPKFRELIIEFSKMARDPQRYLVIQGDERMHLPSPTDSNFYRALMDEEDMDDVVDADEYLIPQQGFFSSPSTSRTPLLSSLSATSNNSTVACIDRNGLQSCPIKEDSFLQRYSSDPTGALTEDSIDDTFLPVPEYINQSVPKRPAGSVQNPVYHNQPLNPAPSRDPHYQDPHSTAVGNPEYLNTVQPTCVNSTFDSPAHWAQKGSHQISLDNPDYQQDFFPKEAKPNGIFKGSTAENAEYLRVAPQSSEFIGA
In short: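 Kinase, substrate and cofactors are mixed in 20 mM Hepes pH 7.5 with 10 mM MgCl2, 1 mM EGTA, 2 mM DTT and 1% DMSO. Compound is added, and about 20 min later ATP/33P-ATP (10 μM final) starts a 120-min room-temperature reaction, which is then spotted onto P81 paper.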

EGFR Δ746-750 mutant = EGFR Δ746-750 mutant (Homo sapiens (Human), UniProt P00533, DEL746-750); test: HotSpot radiometric kinase assay, EGFR Δ746-750 mutant; settings: 10 μM ATP
EGFR Δ746-750 mutant, sequence (P00533 other isoform, or with tags, fused parts or gaps del 1-668/del 746-750 limits assumed): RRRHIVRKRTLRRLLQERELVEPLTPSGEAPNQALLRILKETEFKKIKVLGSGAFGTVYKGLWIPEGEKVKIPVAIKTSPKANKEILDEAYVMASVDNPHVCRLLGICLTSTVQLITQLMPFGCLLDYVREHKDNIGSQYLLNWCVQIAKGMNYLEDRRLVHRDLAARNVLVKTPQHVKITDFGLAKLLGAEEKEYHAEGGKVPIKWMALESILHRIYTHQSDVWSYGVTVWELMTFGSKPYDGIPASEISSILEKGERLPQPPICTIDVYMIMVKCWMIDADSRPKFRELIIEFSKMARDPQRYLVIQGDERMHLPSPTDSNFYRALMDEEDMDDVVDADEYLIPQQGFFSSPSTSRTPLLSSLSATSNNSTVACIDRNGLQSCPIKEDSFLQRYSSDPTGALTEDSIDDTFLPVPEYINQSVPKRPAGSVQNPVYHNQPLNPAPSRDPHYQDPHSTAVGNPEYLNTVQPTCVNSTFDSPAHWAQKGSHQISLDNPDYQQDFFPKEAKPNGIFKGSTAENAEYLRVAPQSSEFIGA
In short: as §1

Structure (SMILES)	IC50 (EGFR (D770_N771insNPG)) [nM]	IC50 (EGFR L858R/T790M mutant) [nM]	IC50 (EGFR L858R mutant) [nM]	IC50 [1] [nM]	IC50 [2] [nM]	IC50 (EGFR WT) [nM]	IC50 (EGFR Δ746-750 mutant) [nM]
Cc1nn(C)c2c1/C=C/c1n[nH]c3ccc(cc13)-c1cnn(C)c1O[C@@H](C)CN(C1COC1)C2 [Example 140, (10S,17E)-8,10,14,16-tetramethyl-12-(oxetan-3-yl)-2,10,11,12,13,14-hexahydro-8H-3,5-ethenotripyrazolo[3,4-f:3′,4′-j:4″,3″-n][1,4]oxazacyclopentadecine]	186	1.19	11.6	1.3	6.14	84.8	9.35
CCN1Cc2c(c(C)nn2CCO)/C=C/c2n[nH]c3ccc(cc23)-c2cnn(C)c2O[C@@H](C)C1 [Example 133, v2-[(10S,17E)-12-ethyl-8,10,16-trimethyl-2,8,10,11,12,13-hexahydro-14H-3,5-ethenotripyrazolo[3,4-f:3′,4′-j:4″,3″-n][1,4]oxazacyclopentadecin-14-yl]ethan-1-ol]	1.62	0.07	0.09	0.24	0.35	0.54	0.12
CCc1nn(C)c2c1/C=C/c1n[nH]c3ccc(cc13)-c1cnn(C)c1CN(C)CCO2 [Example 110, (17E)-16-ethyl-8,10,14-trimethyl-2,9,10,11,12,14-hexahydro-8H-3,5-ethenotripyrazolo[3,4-f:4′,3′-j:4″,3″- n][1,4]oxazacyclopentadecine]	112	4.99	30.4	8.54	28.5	150	14.4
Cc1nn(C)c2c1/C=C/c1n[nH]c3ccc(cc13)-c1cnn(C)c1CN(C)C[C@@H](C)O2 (single isomer, unassigned) [Example 96]	196	5.29	74.9	9.45	94.1	242	285

The next lines start with the values.

IC50 (EGFR (D770_N771insNPG)) [nM]	IC50 (EGFR L858R/T790M mutant) [nM]	IC50 (EGFR L858R mutant) [nM]	IC50 [1] [nM]	IC50 [2] [nM]	IC50 (EGFR WT) [nM]	IC50 (EGFR Δ746-750 mutant) [nM]	Structure (SMILES)
713	2.06	42.6	3.39	8.97	176	67.8	C[C@H]1CN(C)Cc2c(c(OC3CCN(S(C)(=O)=O)CC3)nn2CCO)/C=C/c2n[nH]c3ccc(cc23)-c2cnn(C)c2O1 [Example 175, 2-[(10S,17E)-16-{[1-(methanesulfonyl)piperidin-4-yl]oxy}-8,10,12-trimethyl-2,8,10,11,12,13-hexahydro-14H-3,5-ethenotripyrazolo[3,4-f:3′,4′-j:4″,3″- n][1,4]oxazacyclopentadecin-14-yl]ethan-1-ol]
> 1000	> 1000	> 1000	> 1000	> 1000	> 1000	> 1000	CC(C)Oc1nn([C@@H](C)CO)c2c1/C=C/c1n[nH]c3ccc(cc13)-c1cnn(C)c1O[C@H](C)CN(C(C)C)C2 [Example 207, (2S)-2-{(10R,17E)-8,10-dimethyl-12-(propan-2-yl)-16-[(propan-2-yl)oxy]-2,8,10,11,12,13-hexahydro-14H-3,5-ethenotripyrazolo[3,4-f:3′,4′-j:4″,3″- n][1,4]oxazacyclopentadecin-14-yl}propan-1-ol]
635	4.58	161	1.1	20.5	543	93.6	CCOc1nn(CCO)c2c1/C=C/c1n[nH]c3ccc(cc13)-c1cnn(C)c1O[C@H]1CN(C)C[C@@H]1N(C)C2 (single isomer, unassigned) [Ex. 270]
306	14.9	121	25.6	92.4	405	93	CCc1nn(CCN2CC[C@H](O)C2)c2c1/C=C/c1n[nH]c3ccc(cc13)-c1cnn(C)c1OCCCO2 [Example 69, (3S)-1-{2-[(17E)-16-ethyl-8-methyl-2,8,11,12-tetrahydro-10H,14H-3,5-etheno[1,5]dioxacyclopentadecino[10,11-c:15,14-c′:6,7-c″]tripyrazol-14-yl]ethyl}pyrrolidin-3-ol]
